Measurements published in US20090054403A1, “Treatment of Post-Traumatic Stress Disorder” (priority 2007, published 2009).
Like-named read-outs stand apart in the source and are kept apart here.

What was measured:
[1] = tested on: mean arterial pressure and heart rate; assay: Hemodynamic study in conscious, restrained SHR; assay type: in vivo, spontaneously hypertensive rats (SHR)
Procedure: FIG. 13: Effects of orally administered 2a on mean arterial pressure in conscious, restrained spontaneously hypertensive rats (SHR). SHR were lightly anesthetized with ether and instrumented for measurement of arterial pressure and drug administration. The animals were placed in restrainers and allowed to recover for 30-40 minutes. […] All data are expressed as mean±standard error of mean. n=6-8 per group. […] IR spectra were recorded on a Nicolet SPC FT-IR spectrometer. UV spectra were recorded on a Varian Cary 3 UV-Visible spectrometer, Leeman Labs Inc. Optical rotations were measured in a Perkin-Elmer Model 141 polarimeter. […] Hemodynamic study in SHR. Male SHR (15-16 week old) were used in the study. The animals were lightly anesthetized with ether and the left femoral artery and vein were catheterized for measurement of blood pressure and drug administration, respectively. The animals were placed in restrainers and allowed to recover for 30-40 min. […] The animals were then anesthetized with pentobarbital, placed on a heating pad (37° C.) and ventilated with a Harvard rodent ventilator. After administration of atropine (1 mg/kg, iv) and tubocurarine (1 mg/kg, iv), the animals were pithed through the orbit of the eye with a stainless steel rod. The […] rod was stimulated electrically with 1 ms pulses of 80V at different frequencies (0.15, 0.45, 1.5, 5, 15 Hz) to obtain frequency-pressor response curves.

squirrel monkeys = assay: Safety and tolerability of oral dosing in squirrel monkeys; assay type: in vivo, squirrel monkeys (Saimiri sciureus); conditions: 0.5, 2.0, 5.0 mg/kg twice daily for 5 days
Procedure: Twenty-seven (27) mature squirrel monkeys (Saimiri sciureus), sixteen females and eleven males were used for this study. The monkeys were maintained on a 13 h/11 h light-dark cycle, with food and water available ad libitum. All procedures used in this study followed NIH guidelines and were approved by the Institutional Animal Care and Use Committee (IACUC). Animals were individually housed and allowed a minimum of one month to acclimate to the colony prior to commencing behavioral studies. A total of six squirrel monkeys, three non-lesioned and three lesioned (received 2 mg/kg MPTP 3 months prior), were used for these studies. To determine the optimal route of administration of drug nepicastat, three different approaches were examined including (i) insertion into treats, (ii) oral syringe, and (ii) oral gavage. […] (ii) Oral syringe injection of drug (0.5, 2, and 5 mg/kg) into the mouth of three non-lesioned and three lesioned monkeys was also not an acceptable route since animals tended to spit out the solution at the highest drug concentration. (iii) Oral gavage administration was carried out in 3 MPTP-Iesioned monkeys at the highest dose (5 mg/kg) and was well accepted.
A total of six squirrel monkeys, three non-lesioned and three lesioned (received 2 mg/kg MPTP 3 months prior), were used for these studies. […]

mice = assay: Gross motor behavior and locomotor activity after acute dosing; assay type: in vivo
[2] = Pharmacokinetics after single oral dose in rats (plasma and brain); assay type: in vivo, rats (Crl: CD BR Vaf+); conditions: for half-life: Crl: CD BR Vaf+, rat, plasma, read-out: elimination half-life (converted)
Procedure: Male rats (Crl: CD BR Vaf+) weighing 180-220 g were fasted overnight before dosing and until 4 hr after dosing. Doses were formulated in water containing 2% 1-hydroxypropyl methylcellulose (50 centipoises viscosity), 1% benzyl alcohol, and 0.6% Tween 80 (all obtained from Sigma Chemical Company). Concentration of drug in the dose solutions was 5, 15, and 50 mg/ml for the 10, 30, and 100 mg/kg doses, respectively, and was verified by liquid chromatography (LC). The 5 mg/ml dose was a clear solution and the higher concentrations were a translucent suspension. Dose volumes were 2.0 ml/kg. At various times after dosing, samples of blood were obtained by cardiac puncture with heparinized syringes, and plasma was prepared by centrifugation. Brains of rats were surgically excised, and all samples were frozen at −20° C. until analysis.
Aliquots of plasma (0.05 or 0.5 ml) were mixed with internal standard (50 μl of methanol containing 5 μg/ml a monofluoro analog of nepicastat, and 5 mg/ml dithiothreitol). Samples were mixed with 200 mM sodium phosphate buffer, pH 7.0, (0.5 ml) and extracted with 3 ml of ethyl acetate/hexane (1/1, v/v). The organic phase containing analytes was back extracted with 250 μl of 250 mM acetic acid and 100 μl aliquots of the aqueous phase were assayed by LC. The LC system used a Keystone Hypersil BDS 15 cm C8 column at ambient temperature. Mobile phase A was 12.5 mM potassium phosphate, pH 3.0, with 5 mM dodecanesulfonic acid and mobile phase B was acetonitrile. Solvent composition was 40% B and was pumped at a flow rate of 1 ml/min. Detection was by UV absorption at 261 nm. Concentrations of analytes were determined from a standard curve generated from the analysis of plasma from untreated rats fortified with known concentrations of analyte. Plasma concentration data are expressed as μg (free base) per ml.
Brains were rinsed briefly with saline, blotted on a paper towel, then weighed (1.5-2.0 g). Internal standard was added (50 μl of methanol containing 20 μg/ml a monofluoro analog of nepicastat), and brains were homogenized in 5 ml of 200 mM sodium phosphate, pH 7.0, containing 0.5 mg/ml dithiothreitol. Aliquots of homogenate (2 ml) were extracted with 10 ml of ethyl acetate/hexane (1/1, v/v). The organic phase was gently back extracted with 150 μl of 250 mM acetic acid.
Following addition of 100 μl of methanol to the aqueous phase (to disperse any emulsion), 100 μl aliquots were assayed by LC as described for plasma. Level in brain are expressed as μg (free base) per g of brain tissue.
Pharmacokinetic parameters were calculated from mean plasma concentrations. Plasma half-life (T1/2) was calculated as 0.693/β, where β is the elimination rate constant determined by linear regression of the log plasma concentration vs. time data within the terminal linear portion of the data. Areas under the plasma concentration vs. time curve (AUC) from zero to the time of the last quantifiable plasma concentrations were calculated by the trapezoidal rule. AUC from zero to infinity (AUCtotal) was calculated as:
AUCtotal=AUC(0−Clast)+Clastβ where Clast is the last quantifiable plasma concentration.

In the case of `Cl.NCc1c[nH]c(=S)n1[C@H]1CCc2c(F)cc(F)cc2C1` [nepicastat, (S)-5-Aminomethyl-1-(5,7-difluoro-1,2,3,4-tetrahydronaphth-2-yl)-2,3-dihydro-2-thioxo-1H-imidazole hydrochloride], the “decrease in heart rate” value ([1]; 10 mg/kg oral) is reported as 9.8%, the “maximal decrease in mean blood pressure” value ([1]; 10 mg/kg oral) is reported as 53±4 mmHg and the “reduction in mean blood pressure relative to vehicle control” value ([1]; 10 mg/kg oral) is reported as 33%. The decrease in pressure ([1]; 10 mg/kg, 4 hours after dosing) was −46 mmHg, the “decrease in heart rate” value ([1]; 30 mg/kg oral) was 10.5% and the “duration of antihypertensive effects” value ([1]; acute oral administration) was > 4 h. For the same compound, the “time to plateau of antihypertensive response” value ([1]; oral dosing) was 3 to 4 h, the tolerability (squirrel monkeys) was “well tolerated at the two lower doses” and the gross motor behavior (mice; 1.0-30 mg/kg p.o., acute) was “no significant effects on gross motor behavior”. For the same compound, the locomotor activity (mice; 10-100 mg/kg i.p.) was “did not effect locomotor activity”, the “concentrations in brain relative to plasma” value ([2]; 10 mg/kg oral, male rats, from 2 hr following dosing onward) was “exceeded those in plasma” and the “plasma AUCtotal in female rats relative to male rats (higher by)” value ([2]; 30 mg/kg oral) was 77%. The “relationship between AUCtotal and dose” value ([2]; 10-100 mg/kg oral, male rats) was “linear”, the half-life ([2]; 10 mg/kg oral, male rats) was 1.7 h and the half-life ([2]; 30 mg/kg oral, male rats) was 2.09 h. For the same compound, the half-life ([2]; 100 mg/kg oral, male rats) was 3.88 h.
